Columns and labels:
[1] = Lipophilicity based on HPLC retention time; assay type: physicochemical; details: relative to 1a
DOR (δ-opioid receptor) = DOR (δ-opioid receptor) (Homo sapiens, UniProt P41143); test: PDSP radioligand binding, DOR
hP2Y14R = biological target: T1, hP2Y14R (Homo sapiens, UniProt Q15391); details: hP2Y14R-expressing CHO cells, tracer 2
T1 sequence (Q15391 1-338): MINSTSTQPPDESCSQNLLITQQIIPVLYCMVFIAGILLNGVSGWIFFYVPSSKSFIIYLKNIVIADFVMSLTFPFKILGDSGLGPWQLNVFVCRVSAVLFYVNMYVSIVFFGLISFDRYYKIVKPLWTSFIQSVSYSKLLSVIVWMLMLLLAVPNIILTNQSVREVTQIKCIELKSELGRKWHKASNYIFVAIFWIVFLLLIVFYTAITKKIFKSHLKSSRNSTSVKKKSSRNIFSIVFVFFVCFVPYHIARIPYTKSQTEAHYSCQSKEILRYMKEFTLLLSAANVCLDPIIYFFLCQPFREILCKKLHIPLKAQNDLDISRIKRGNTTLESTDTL

[2] = test system: eosinophils in the bronchoalveolar lavage fluid (BALF); test: Ovalbumin/Aspergillus protease mouse model of allergic asthma, BALF leukocytes; assay type: in vivo; details: 20 μmol kg^−1, i.p. prior to allergen challenge, 2 days post-challenge
[3] = test system: CCI-induced mechano-allodynia; details: mouse; cited from earlier work
hERG = hERG (Homo sapiens, UniProt Q12809); test: cell-based
hERG, sequence (Q12809 whole entry): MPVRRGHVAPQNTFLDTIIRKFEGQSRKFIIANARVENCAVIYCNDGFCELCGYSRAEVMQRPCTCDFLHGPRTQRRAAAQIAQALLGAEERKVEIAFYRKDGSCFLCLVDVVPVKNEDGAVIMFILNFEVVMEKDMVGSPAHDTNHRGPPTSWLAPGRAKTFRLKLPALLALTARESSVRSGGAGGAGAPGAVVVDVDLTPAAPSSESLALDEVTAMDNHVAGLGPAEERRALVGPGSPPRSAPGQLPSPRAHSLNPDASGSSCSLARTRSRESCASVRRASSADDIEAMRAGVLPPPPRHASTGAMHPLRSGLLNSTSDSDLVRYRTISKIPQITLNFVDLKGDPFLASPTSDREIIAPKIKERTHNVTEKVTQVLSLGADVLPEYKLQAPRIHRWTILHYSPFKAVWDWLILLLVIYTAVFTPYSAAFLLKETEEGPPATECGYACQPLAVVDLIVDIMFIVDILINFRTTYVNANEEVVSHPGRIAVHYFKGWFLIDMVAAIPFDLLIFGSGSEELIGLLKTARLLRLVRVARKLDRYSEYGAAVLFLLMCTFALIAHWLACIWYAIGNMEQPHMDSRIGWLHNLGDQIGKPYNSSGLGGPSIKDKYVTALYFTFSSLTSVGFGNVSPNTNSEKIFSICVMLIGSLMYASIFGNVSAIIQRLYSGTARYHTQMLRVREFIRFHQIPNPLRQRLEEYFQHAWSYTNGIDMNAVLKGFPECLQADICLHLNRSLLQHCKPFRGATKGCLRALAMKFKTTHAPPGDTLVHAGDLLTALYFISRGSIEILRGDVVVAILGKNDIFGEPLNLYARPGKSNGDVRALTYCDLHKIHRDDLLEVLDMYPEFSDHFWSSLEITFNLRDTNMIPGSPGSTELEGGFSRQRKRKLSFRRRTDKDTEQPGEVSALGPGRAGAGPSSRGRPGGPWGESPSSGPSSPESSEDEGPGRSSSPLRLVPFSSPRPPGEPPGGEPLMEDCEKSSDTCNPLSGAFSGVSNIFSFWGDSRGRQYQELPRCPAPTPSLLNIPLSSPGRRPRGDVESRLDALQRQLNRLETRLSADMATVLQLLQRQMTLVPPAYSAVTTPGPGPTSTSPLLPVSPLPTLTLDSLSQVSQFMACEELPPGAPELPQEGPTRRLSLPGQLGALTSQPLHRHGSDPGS

DOR (δ-opioid receptor), sequence (P41143 whole entry): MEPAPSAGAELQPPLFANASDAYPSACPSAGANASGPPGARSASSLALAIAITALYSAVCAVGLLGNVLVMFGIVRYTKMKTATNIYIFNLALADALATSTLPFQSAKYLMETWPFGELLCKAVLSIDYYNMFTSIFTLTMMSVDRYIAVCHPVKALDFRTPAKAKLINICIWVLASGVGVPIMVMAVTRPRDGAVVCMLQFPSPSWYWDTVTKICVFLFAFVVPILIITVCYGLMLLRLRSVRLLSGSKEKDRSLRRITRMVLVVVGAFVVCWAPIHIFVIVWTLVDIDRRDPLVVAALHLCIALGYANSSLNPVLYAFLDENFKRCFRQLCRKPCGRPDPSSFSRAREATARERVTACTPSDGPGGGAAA

SMILES: O=C(O)c1cc(-c2ccc(NC(=O)C3CCNCC3)cc2)cc(-n2cc(-c3ccc(C(F)(F)F)cc3)nn2)c1 [Compound 11, 4′-(Piperidine-4-carboxamido)-5-(4-(4-(trifluoromethyl)phenyl)-1H-1,2,3-triazol-1-yl)-[1,1′-biphenyl]-3-carboxylic Acid]
- solubility in aqueous medium in words (Aqueous solubility): poorly soluble in aqueous medium

SMILES: O=C(O)c1cc(-c2ccc(-c3cc(CO)on3)cc2)cc(-n2cc(-c3ccc(C(F)(F)F)cc3)nn2)c1 [Compound 29, 4′-(5-(Hydroxymethyl)isoxazol-3-yl)-5-(4-(4-(trifluoromethyl)-phenyl)-1H-1,2,3-triazol-1-yl)-[1,1′-biphenyl]-3-carboxylic Acid]
- hydrophilicity gain compared to 1a [1]: −1.06 cLogP units
- Ki (DOR (δ-opioid receptor)): 6.9 ± 1.9 µM
- hP2Y14R affinity in words (hP2Y14R): submicromolar affinity

SMILES: O=C(O)c1cc(-c2ccc(C3CCNCC3)cc2)c2ccc(-c3ccc(C(F)(F)F)cc3)cc2c1 [Compound 1a, 4-[4-(4-piperidinyl)phenyl]-7-[4-(trifluoromethyl)phenyl]-2-naphthalene-carboxylic acid]
- eosinophil counts in the BALF / efficacy in asthma model [2]: reduced
- solubility in DMSO at 20 mg mL^−1: could not dissolve
- effect on chronic pain in the CCI model [3]: effective in reducing chronic pain
- IC50 (hERG): > 30 µM

From paper PMC8317135 (Journal of medicinal chemistry, 2021)
